Test results taken from patent publication US20100120703A1, “COMPOSITIONS AND METHODS FOR TREATING CANCER” (priority 2007, published 2010).

Assays:
Clone 9 cells = experiment: Neutral red cell viability assay; assay type: cell-based, rat; details: SIN up to 1,000 μM, 72 hours
From the text: The neutral red (NR) cytotoxicity assay is a chemosensitivity assay for measuring cell survival/viability, based on the ability of viable cells to incorporate and bind neutral red, a supravital dye. NR is a weak cationic dye that readily penetrates cell membranes by non-ionic diffusion, accumulating intracellularly in lysosomes, where it binds with anionic sites in the lysosomal matrix. Alterations of the cell surface or the sensitive lysosomal membrane lead to lysosomal fragility and other changes that gradually become irreversible. Such changes brought about by the action of xenobiotics result in a decreased uptake and binding of NR. It is thus possible to distinguish between viable, damaged, or dead cells. (Babich, H et al, 1990)
Three different cell lines HepG2, WRL-68 and Clone 9 cell lines were used in the experiment. HepG2 is a human hepatoblastoma cell line. It is a well known cell model in anti-HCC studies (Alshatwi A A, et al, 2006). WRL-68 is a human normal liver embryo cell line that has a morphologic structure similar to hepatocytes and hepatic primary cultures (Gutierrez-Ruiz, et al, 1994). This cell line was used as the control. Clone 9 is the rat Sprague Dawley (SD) liver normal cell line. […]
HepG2, WRL-68 and Clone 9 cells were grown in complete culture medium (RPMI or DMEM), trypsinized and washed. […] The color was measured at OD540nm.

Sprague Dawley (SD) rats = experiment: Histological analysis and GST-p immunostaining of liver, progression stage; assay type: in vivo, rat
Experimental: The liver samples were fixed with 10% formaldehyde and put in cassettes for dehydration and fixed with wax. Subsequently, liver samples were embedded in the solidified wax and sliced to 5 μm thickness with a microtome machine. Sliced samples were mounted onto Superfrost microscope slides for further studies.
Slides with liver sections were placed on a slide holder, dewaxed and rehydrated with xylene (3 times, each time 5 minutes), 100% ethanol (3 times, each time 3 minutes), 95% ethanol (3 minutes), 80% ethanol (3 minutes) and distilled water (5 minutes) in order. Slides were then immersed into hematoxylin for about 3 minutes, and the color was allowed to develop for several minutes in water, followed by brief destaining with acid ethanol and water. Slides were immersed into eosin for about 30 seconds to stain the cytoplasm red, followed by washing in tap water for several minutes. Slide-checking was necessary to assure the best staining effect. Slides were then dehydrated with 95% ethanol (3 minutes), 100% ethanol (3 times, each time 5 minutes), and xylene (3 times, each time 5 minutes), in order. Finally, the slides were mounted with coverslips and allowed to dry. […]
The images were checked and captured by an Axiophot-2 Universal microscope (Zeiss) connected with computer for documentation. The image was recorded by Spot 32 image capture software (Diagnostic Instruments). […]

What does the source list for `C=CC/C(=N/OS(=O)(=O)[O-])S[C@@H]1OC(CO)[C@@H](O)C(O)C1O.[K+]` (stereo partly drawn) [SIN, sinigrin]?
cell viability of Clone 9 cells (healthy liver cells) (Clone 9 cells): no decrease in cell viability was observed; hepatocyte structure in liver sections (H&E) (Sprague Dawley (SD) rats; 15 mg/kg oral daily): the basic structure was restored without abnormal appearance; GST-p positive area / whole section area (Sprague Dawley (SD) rats; positive control about 30%): less than 10%
